21 molecules from patent US20160151337A1, “ANNELATED PYRROLES AND THEIR USE AS CRAC INHIBITORS” (Grünenthal GmbH, priority 2013, published 2016) can be followed below.

SMILES strings stand for the structures. Bounds are passed on as bounds.

In assay [1] the test system is Interleukin-2 (IL-2) production/release in Jurkat T cells. Kind of assay: Jurkat IL-2 Production Assay (PHA-stimulated, IL-2 AlphaLisa). The assay is classed as cell-based. The following applies: Homo sapiens, PHA 15 μg/ml, 22 h, inhibition of IL-2 production. The protocol: The effect of compounds of the invention on Interleukin-2 (IL-2) production/release was tested in the Jurkat T cell line (ECACC) clone E6-1.
Jurkat T cells were cultured in DMEM/F12/Glutamax (Gibco) containing 10% FCS (Gibco), and maintained at 37° C., 5% CO2. Cells were split twice a week [5*10^6 (Mon-Thu) and 1*10^7 (Thu-Mon) cells/50 ml medium in 1-175 ZK culture flasks, respectively].
Prior to experiment, cells were seeded on 96 well plates (Cellstar 96 Well; Cat No. 655180, Greiner bio-one) at a density of 5*10^5 cells/well in DMEM/F12/Glutamax (Gibco) containing 10% FCS (Gibco), and incubated for 60 min at 37° C., 5% CO2. Subsequently, compounds were added and cells were allowed to incubate for 30 min at 37° C., 5% CO2. Cells were then stimulated with 15 μg/ml Phyto-hemagglutinin (PHA; Sigma) for 22 hours at 37° C., 5% CO2.
Before sampling of the supernatants, cells were spun down (200*g/5 min/RT). The amount of IL-2 released into the supernatant was quantified with the human IL-2 AlphaLisa kit (Perkin Elmer) according to manufacturer's instructions. Luminescence proximity measurements were carried out in the Synergy H4 reader (BioTek) employing the fluorescence setting of the reader (ex: 680/30 nm; em: 620/40 nm).
Inhibition of IL-2 production/release in/from Jurkat T cells was quantified as follows: Zero percent inhibition (MAX) was defined as the [IL-2] determined in supernatants derived from cells to which PHA & DMSO-only had been added instead of compound. Hundred percent inhibition (MIN) was defined as the [IL-2] determined in supernatants derived from cells that had been pre-treated with 1 μM CyclosporineA (Sigma) before the addition of 15 μg/ml PHA.
For routine IC50 determinations of compounds, 8 concentrations of a serial dilution (1:3.16) were tested, starting off from 10 μM.
(In general: Bead proximity is the source of the signal in Alpha formats.)

A further assay deals with T1, CRAC channel (Homo sapiens, UniProt Q96D31).
T1 construct: endogenous in cells; host or cells: HEK293 (ECACC), untransfected
T1 sequence (Q96D31 whole entry): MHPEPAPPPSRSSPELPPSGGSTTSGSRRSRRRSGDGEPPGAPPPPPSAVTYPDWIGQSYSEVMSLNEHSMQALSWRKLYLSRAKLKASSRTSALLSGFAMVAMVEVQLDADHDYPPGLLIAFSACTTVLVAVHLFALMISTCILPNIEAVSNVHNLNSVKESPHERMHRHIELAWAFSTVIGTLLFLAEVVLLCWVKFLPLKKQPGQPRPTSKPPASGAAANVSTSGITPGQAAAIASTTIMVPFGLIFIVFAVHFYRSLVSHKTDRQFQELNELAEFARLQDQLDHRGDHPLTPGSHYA
Kind of assay: HEK Calcium Influx Assay (FLIPR), inhibition of store-operated Ca2+ entry after thapsigargin store depletion. It is filed as cell-based. The following applies: 10 μM compound, HEK293 cells, read-out: % inhib. [@ 10 μM] FLIPR. The protocol: The effect of compounds of the invention on intracellular [Ca^2+] was tested in the HEK293 cell line (ECACC).
HEK293 cells were cultured in DMEM/F12/Glutamax (Gibco) containing 10% FCS (Gibco), and maintained at 37° C., 5% CO2. Cell were split twice a week [3*10^6 (Mon-Thu) and 1*10^6 (Thu-Mon) cells/50 ml medium in 1-175 ZK culture flasks, respectively]. Twenty four hours pre-experiment, cells were seeded on 96 well plates (Poly-D-Lysine 96 well Black/Clear Plate, BD Biocoat REF 356640) at a density of 40,000 cells/well in DMEM/F12 (Gibco) containing 10% FCS (Gibco), and maintained at 37° C., 5% CO2.
Prior to store-depletion, cell culture medium was removed and cells were loaded with the Calcium-sensitive fluorescent dye comprised within the Calcium-4-assay kit (Molecular Devices) in nominally Ca^2+-free HBS buffer (140 mM NaCl, 4 mM KCl, 0.2 mM MgCl2, 11 mM D-glucose, and 10 mM HEPES, pH 7.4) according to manufacturer's instruction for 60 min at 37° C., 5% CO2.
Passive depletion of intracellular Ca^2+-stores was then triggered by employing the SERCA inhibitor thapsigargin (2 μM final) for 10 min in the dark (RT). To prevent immediate Ca^2+-entry via the activated store-operated channels (SOCs), cells were maintained in Ca^2+-free HBS buffer comprising 100 μM EGTA during store-depletion.
Intracellular changes in [Ca^2+] were subsequently monitored with the FLIPR device (Molecular Devices). In brief, baseline imaging post-store depletion was allowed for 1 min before adjusting the extracellular buffer to 3 mM CaCl2. Increases in intracellular [Ca^2+] due to pre-activated SOC channels were monitored for 15 min until intracellular Ca^2+ levels had declined into a steady-state. Finally, compounds were administered, and Ca^2+ signals were recorded for additional 10 min.
Inhibition of endogenous SOC in HEK293 cells was quantified employing the average Ca^2+ signal measured from 9.5-10 min post-administration. Zero percent inhibition (MAX) was defined as the Ca^2+ signal recorded from wells to which DMSO-only had been added instead of compound. Hundred percent inhibition (MIN) was defined as the signal obtained from wells in which cells haven't been treated with TG prior to Ca^2+ addition and to which DMSO-only had been added instead of compound. For routine IC50 determinations of compounds, 8 concentrations of a serial dilution (1:3.16) were tested, starting off from 10 μM. Reliable IC50's could consequently be determined only, if they were at least sub 2.5-3 μM.

Broadly, the IC50 is the midpoint of a concentration-inhibition curve. As to `Cc1sc(-c2cccnc2)nc1N1CCc2[nH]c(-c3c(F)cccc3F)cc2C1=O` [Example 1, 2-(2,6-Difluoro-phenyl)-5-(5-methyl-2-pyridin-3-yl-thiazol-4-yl)-1,5,6,7-tetrahydro-pyrrolo[3,2-c]pyridin-4-one], the IC50 in assay [1] is 1 to 5 µM. Moreover, the inhibition at 10 µM at CRAC channel lay in the range of 50 to 70%.
Taken in the same sequence, the figures for `Cc1sc(-c2cccnc2)nc1N1CCc2[nH]c(-c3c(F)cccc3F)cc2C1` [Example 2, 4-[2-(2,6-Difluoro-phenyl)-4,5,6,7-tetrahydro-1H-pyrrolo[3,2-c]pyridin-5-yl]-5-methyl-2-pyridin-3-yl-thiazole] were less than 0.5 µM and more than 70%.
Taken in the same sequence, the figures for `Cc1cc(Cl)ncc1N1CCc2[nH]c(-c3c(F)cccc3F)cc2C1` [Example 4, 5-(6-Chloro-4-methyl-pyridin-3-yl)-2-(2,6-difluoro-phenyl)-4,5,6,7-tetrahydro-1H-pyrrolo[3,2-c]pyridine] were less than 0.5 µM and more than 70%.
The corresponding values for `Cc1sc(-c2ccccn2)nc1N1CCc2[nH]c(-c3c(F)cccc3F)cc2C1` [Example 6, 4-[2-(2,6-Difluoro-phenyl)-4,5,6,7-tetrahydro-1H-pyrrolo[3,2-c]pyridin-5-yl]-5-methyl-2-pyridin-2-yl-thiazole] are less than 0.5 µM and 50 to 70%.
Regarding `Fc1cccc(F)c1-c1cc2c([nH]1)CCN(c1cccc(C(F)(F)F)c1)C2` [Example 7, 2-(2,6-Difluoro-phenyl)-5-[3-(trifluoromethyl)phenyl]-4,5,6,7-tetrahydro-1H-pyrrolo[3,2-c]pyridine], the IC50 in assay [1] was 1 to 5 µM. Moreover, the inhibition at 10 µM at CRAC channel was less than 50%.
The corresponding values for `Cc1ccc(-c2nccs2)cc1N1CCc2[nH]c(-c3c(F)cccc3F)cc2C1` [Example 8, 2-[3-[2-(2,6-Difluoro-phenyl)-4,5,6,7-tetrahydro-1H-pyrrolo[3,2-c]pyridin-5-yl]-4-methyl-phenyl]-thiazole] are less than 0.5 µM and more than 70%.
The corresponding values for `Fc1cccc(F)c1-c1cc2c([nH]1)CCN(c1cc3c(cc1Cl)OC(F)(F)O3)C2` [Example 9, 5-(6-Chloro-2,2-difluoro-1,3-benzodioxol-5-yl)-2-(2,6-difluoro-phenyl)-4,5,6,7-tetrahydro-1H-pyrrolo[3,2-c]pyridine] are 1 to 5 µM and less than 50%.
Take `Cc1ccncc1N1CCc2[nH]c(-c3c(F)cccc3F)cc2C1` [Example 10, 2-(2,6-Difluoro-phenyl)-5-(4-methyl-pyridin-3-yl)-4,5,6,7-tetrahydro-1H-pyrrolo[3,2-c]pyridine]: the IC50 in assay [1] lay in the range of 1 to 5 µM. At CRAC channel, the inhibition at 10 µM is more than 70%.
Taken in the same sequence, the figures for `Cc1cc(Cl)ccc1N1CCc2[nH]c(-c3c(F)cccc3F)cc2C1` [Example 11, 5-(4-Chloro-2-methyl-phenyl)-2-(2,6-difluoro-phenyl)-4,5,6,7-tetrahydro-1H-pyrrolo[3,2-c]pyridine] were 0.5 to 1 µM and less than 50%.
Taken in the same sequence, the figures for `Cc1cc(C#N)ccc1N1CCc2[nH]c(-c3c(F)cccc3F)cc2C1` [Example 12, 4-[2-(2,6-Difluoro-phenyl)-4,5,6,7-tetrahydro-1H-pyrrolo[3,2-c]pyridin-5-yl]-3-methyl-benzonitrile] were less than 0.5 µM and 50 to 70%.
Taken in the same sequence, the figures for `COC(=O)c1ccc(N2CCc3[nH]c(-c4c(F)cccc4F)cc3C2)c(C)c1` [Example 13, 4-[2-(2,6-Difluoro-phenyl)-4,5,6,7-tetrahydro-1H-pyrrolo[3,2-c]pyridin-5-yl]-3-methyl-benzoic acid methyl ester] were 0.5 to 1 µM and less than 50%.
In the case of `Cc1cc(S(=O)(=O)N(C)C)ccc1N1CCc2[nH]c(-c3c(F)cccc3F)cc2C1` [Example 14, 4-[2-(2,6-Difluoro-phenyl)-4,5,6,7-tetrahydro-1H-pyrrolo[3,2-c]pyridin-5-yl]-N,N,3-trimethyl-benzenesulfonic acid amide], the IC50 in assay [1] is less than 0.5 µM. Besides, the inhibition at 10 µM on CRAC channel is less than 50%.
As for `Cc1nc(Cl)ccc1N1CCc2[nH]c(-c3c(F)cccc3F)cc2C1` [Example 15, 5-(6-Chloro-2-methyl-pyridin-3-yl)-2-(2,6-difluoro-phenyl)-4,5,6,7-tetrahydro-1H-pyrrolo[3,2-c]pyridine], the IC50 in assay [1] lay in the range of 1 to 5 µM. Further, at CRAC channel, the inhibition at 10 µM is more than 70%.
For the molecule `Cc1cc(C(=O)N(C)C)ccc1N1CCc2[nH]c(-c3c(F)cccc3F)cc2C1` [Example 81, 4-[2-(2,6-Difluoro-phenyl)-4,5,6,7-tetrahydro-1H-pyrrolo[3,2-c]pyridin-5-yl]-N,N,3-trimethyl-benzamide], on CRAC channel, the inhibition at 10 µM was more than 70%.
The same measure, in the same setting: the result for `COc1cnc(C(F)(F)F)nc1N1CCc2[nH]c(-c3c(F)cccc3F)cc2C1` [Example 84, 2-(2,6-Difluoro-phenyl)-5-[5-methoxy-2-(trifluoromethyl)-pyrimidin-4-yl]-4,5,6,7-tetrahydro-1H-pyrrolo[3,2-c]pyridine] reads 50 to 70%; that for `Cc1sc(-c2cccnc2)nc1N1CCc2[nH]c(-c3c(F)cccc3F)c(CO)c2C1` [Example 85, [2-(2,6-Difluoro-phenyl)-5-(5-methyl-2-pyridin-3-yl-thiazol-4-yl)-4,5,6,7-tetrahydro-1H-pyrrolo[3,2-c]pyridin-3-yl]-methanol], more than 70%.
As for `Cc1cc(S(C)(=O)=O)ncc1N1CCc2[nH]c(-c3snnc3C)cc2C1` [Example 89, 4-Methyl-5-[5-(4-methyl-6-methylsulfonyl-pyridin-3-yl)-4,5,6,7-tetrahydro-1H-pyrrolo[3,2-c]pyridin-2-yl]-[1,2,3]thiadiazole], the inhibition at 10 µM at CRAC channel lay in the range of 50 to 70%.
As to `Cc1c(F)cncc1N1CCc2[nH]c(-c3c(F)cccc3F)cc2C1` [Example 94, 2-(2,6-Difluoro-phenyl)-5-(5-fluoro-4-methyl-pyridin-3-yl)-4,5,6,7-tetrahydro-1H-pyrrolo[3,2-c]pyridine], the inhibition at 10 µM on CRAC channel was more than 70%.
For `Cc1cc(N)ncc1N1CCc2[nH]c(-c3c(F)cccc3F)cc2C1` [Example 95, [5-[2-(2,6-Difluoro-phenyl)-4,5,6,7-tetrahydro-1H-pyrrolo[3,2-c]pyridin-5-yl]-4-methyl-pyridin-2-yl]-amine], on CRAC channel, the inhibition at 10 µM was more than 70%.
Take `COc1ncccc1-c1cc2c([nH]1)CCN(c1cnc(S(C)(=O)=O)cc1C)C2` [Example 98, 2-(2-Methoxy-pyridin-3-yl)-5-(4-methyl-6-methylsulfonyl-pyridin-3-yl)-4,5,6,7-tetrahydro-1H-pyrrolo[3,2-c]pyridine]: the inhibition at 10 µM on CRAC channel was more than 70%.
On to `CCn1nc(N2CCc3[nH]c(-c4c(F)cccc4F)cc3C2)cc1C1(C(F)(F)F)CC1` [Example 125, 2-(2,6-Difluoro-phenyl)-5-[1-ethyl-5-[1-(trifluoromethyl)-cyclopropyl]-1H-pyrazol-3-yl]-4,5,6,7-tetrahydro-1H-pyrrolo[3,2-c]pyridine], for which, on CRAC channel, the inhibition at 10 µM is more than 70%.
